Publication PMC10244465, “Native American ataxia medicines rescue ataxia-linked mutant potassium channel activity via binding to the voltage sensing domain” (Nature Communications, 2023)
Where two headings read alike, the source gives them in different places.

Columns and labels:
wild-type Kv1.1 = tested on: wild-type Kv1.1; set-up: method as in PMID 28391996; conditions: prepulse current at −50 mV, 10 µM; cited from earlier work
[1] = set-up: method as in earlier work; conditions: following massage with lavender oil; cited from earlier work
wild-type human Kv1.1 = target: T1, wild-type human Kv1.1 (Homo sapiens, UniProt Q09470); experiment: Two-electrode voltage clamp of oocytes expressing wild-type Kv1.1; assay type: cell-based; conditions: for effect on Kv1.1 activity: compound 100 µM; for EM (unclamped oocyte membrane potential) / Slope / V0.5 Normalized tail current: in presence of 100 µM compound
T1 construct: expressed in transfected cells; host or cells: Xenopus laevis oocytes injected with cRNA (pTLNx vector)
Source text: Wild-type and mutant Kv1 cDNAs were generated (Genscript, Piscataway, NJ) in the pTLNx expression vector. As previously described, we generated cRNA transcripts encoding human Kv1.1 (wild-type and mutant) and Kv1.2, by in vitro transcription using the mMessage mMachine kit (Thermo Fisher Scientific), after vector linearization, from cDNA sub-cloned into plasmids (pTLNx) incorporating Xenopus laevis β-globin 5’ and 3’ UTRs flanking the coding region to enhance translation and cRNA stability. We injected defolliculated stage V and VI Xenopus laevis oocytes (Xenoocyte, Dexter, MI, US) with Kv1 cRNAs (1–5 ng). We incubated the oocytes at 16 °C in ND96 oocyte storage solution containing penicillin and streptomycin, with daily washing, for 2 days prior to two-electrode voltage-clamp (TEVC) recording.
We performed TEVC at room temperature using an OC-725C amplifier (Warner Instruments, Hamden, CT) and pClamp10 software (Molecular Devices, Sunnyvale, CA) 2 days after cRNA injection as described in the section above. For recording, oocytes we placed in a small-volume oocyte bath (Warner) and viewed with a dissection microscope. We sourced chemicals from Sigma. We studied effects of plant extracts and of compounds, solubilized directly in bath solution (in mM): 96 NaCl, 4 KCl, 1 MgCl2, 1 CaCl2, 10 HEPES (pH 7.6). We introduced extracts or compounds into the oocyte recording bath by gravity perfusion at a constant flow of 1 ml per minute for 3 min prior to recording. Pipettes were of 1–2 MΩ resistance when filled with 3 M KCl. We recorded currents in response to voltage pulses between −80 mV and +40 mV at 10 or 20 mV intervals from a holding potential of −80 mV, to yield current-voltage relationships and examine activation kinetics. To calculate the voltage dependence of activation (V0.5), tail currents were recorded at a voltage pulse of −50 mV immediately following prepulse voltages between −80 mV and +40 mV. We analyzed data using Clampfit (Molecular Devices) and Graphpad Prism software (GraphPad, San Diego, CA, USA), stating values as mean ± SEM. We plotted raw or normalized tail currents vs. prepulse voltage and fitted with a single Boltzmann function:1 g=(A1−A2)/1+exp[V1/2−V/Vs]y+A2 where g is the normalized tail conductance, A1 is the initial value at -∞, A2 is the final value at +∞, V1/2 is the half-maximal voltage of activation and Vs the slope factor.

wild-type human Kv1.2 = target: T2, wild-type human Kv1.2 (Homo sapiens, UniProt P16389); experiment: Two-electrode voltage clamp of oocytes expressing wild-type Kv1.2; assay type: cell-based
T2 construct: expressed in transfected cells; host or cells: Xenopus laevis oocytes injected with cRNA (pTLNx vector)
Method: We therefore first tested for activity of extracts (diluted 1:50 in bath solution to equal 5 mg plant solid starting material per ml) of each of the three plants on wild-type human Kv1.1 and closely related Kv1.2 expressed in Xenopus laevis oocytes, using manual two-electrode voltage clamp (TEVC). Strikingly, all three extracts altered Kv1 channel activity. […] Pacific ninebark (roots or leaves) had similar effects on Kv1.1 but negligible effects on Kv1.2.
We purchased live Urtica dioica (Common Nettle) from Crimson Sage Nursery (Orleans, CA, USA), cultivated it in Irvine CA, collected the aerial portions (primarily leaves) and then froze them until the day of extraction. We purchased Physocarpus capitatus (Pacific ninebark) live whole plant from Ozark Wildflower Company (Jasper, AR, USA) and separated the roots and aerial parts before extraction of each. We homogenized plant samples using a bead mill with porcelain beads in batches in 50 ml tubes (Omni International, Kennesaw, GA, United States). We purchased certified organic tree bark powders from Mountain Rose Herbs (Eugene, OR, USA) and dry raw Sophora japonica (fine pellets) from Teriya (People’s Republic of China). We purchased bladderwrack kelp extract capsules from Terra Vita (Brampton, Ontario, Canada) and discarded the outer capsule before extraction. We resuspended all plant powders and homogenates in 80% methanol/20% water (100 ml per 5 g solid) and then incubated for 48 h at room temperature, occasionally inverting the bottles to resuspend the extracts. We next filtered the extracts through Whatman filter paper #1 (Whatman, Maidstone, UK), and then removed the methanol using evaporation in a fume hood for 24–48 h at room temperature. We next centrifuged extracts for 10 min at 15 °C, 4000 RCF to remove the remaining particulate matter, followed by storage at −20 °C. On the day of electrophysiological recording, we thawed the extracts and diluted them 1:50 in bath solution (see below), to equal 5 mg plant solid starting material per ml, immediately before use.
Wild-type and mutant Kv1 cDNAs were generated (Genscript, Piscataway, NJ) in the pTLNx expression vector. […]
(§1) We performed TEVC at room temperature using an OC-725C amplifier (Warner Instruments, Hamden, CT) and pClamp10 software (Molecular Devices, Sunnyvale, CA) 2 days after cRNA injection as described in the section above. […] We recorded currents in response to voltage pulses between −80 mV and +40 mV at 10 or 20 mV intervals from a holding potential of −80 mV, to yield current-voltage relationships and examine activation kinetics. To calculate the voltage dependence of activation (V0.5), tail currents were recorded at a voltage pulse of −50 mV immediately following prepulse voltages between −80 mV and +40 mV. […]

Kv1.1-E283K channels = target: T3, Kv1.1-E283K channels (Homo sapiens, UniProt Q09470, E283K); experiment: TEVC of oocytes injected with 100% Kv1.1-E283K cRNA; assay type: cell-based; conditions: compound 1 µM
T3 construct: expressed in transfected cells; host or cells: Xenopus laevis oocytes

Kv1.1-L328V channels = target: T4, Kv1.1-L328V channels (Homo sapiens, UniProt Q09470, L328V); experiment: TEVC of oocytes expressing 100% Kv1.1-L328V; assay type: cell-based; conditions: compound 1 µM
T4 construct: expressed in transfected cells; host or cells: Xenopus laevis oocytes
Source text: (§2) EA1 mutant G311D is in the S4-5 linker of Kv1.1 (Fig. 5a) and produces a 65% prepulse current reduction both in Kv1.1-G311D and in Kv1.1/Kv1.1-G311D channels[43],[44]; either channel type was minimally responsive to the plant extracts tested (Supplementary Figs. 3 and 4). EA1 mutant L328V (which is associated with tetany and hypomagnesemia) is located in the intracellular end of Kv1.1 S5 (Fig. 5a) and results in complete current loss in a dominant negative manner, i.e., Kv1.1-L328V and Kv1.1/Kv1.1-L328V channels are each nonfunctional. The traditional ataxia remedy plant extracts were unable to rescue Kv1.1-L328V or Kv1.1/Kv1.1-L328V function (Supplementary Figs. 5 and 6). EA1 mutant V408A is in the intracellular-proximal end of Kv1.1 S6 (Fig. 5a) and reduces current, speeds deactivation, and increases C-type inactivation of Kv1.1[46]. Here, Native American ataxia remedy extracts had relatively minor effects on Kv1.1-V408A activity, with nettle and Pacific ninebark (roots or leaves) inducing hyperpolarizing shifts in EM, and Pacific ninebark leaves inducing a negative shift in the voltage dependence of activation, although this was not quantifiable due to the very small tail currents (Supplementary Fig. 7). Effects of the extracts on Kv1.1/Kv1.1-V408A activity were also relatively minor (Supplementary Fig. 8). […]
as §1, with “mV. We analyzed data using Clampfit (Molecular Devices) and Graphpad Prism software (GraphPad, San Diego, CA, USA), stating values as mean ± SEM.” for “mV.”

Kv1.1-V408A channels = target: T5, Kv1.1-V408A channels (Homo sapiens, UniProt Q09470, V408A); experiment: TEVC of oocytes expressing 100% Kv1.1-V408A; assay type: cell-based; conditions: compound 1 µM
T5 construct: expressed in transfected cells; host or cells: Xenopus laevis oocytes
Source text: as §2
as §1, with “mV. We analyzed data using Clampfit (Molecular Devices) and Graphpad Prism software (GraphPad, San Diego, CA, USA), stating values as mean ± SEM.” for “mV.”

[2] = dose response, Fig. 4, read-out: EC50 for ΔV0.5activation

T1 sequence (Q09470 whole entry): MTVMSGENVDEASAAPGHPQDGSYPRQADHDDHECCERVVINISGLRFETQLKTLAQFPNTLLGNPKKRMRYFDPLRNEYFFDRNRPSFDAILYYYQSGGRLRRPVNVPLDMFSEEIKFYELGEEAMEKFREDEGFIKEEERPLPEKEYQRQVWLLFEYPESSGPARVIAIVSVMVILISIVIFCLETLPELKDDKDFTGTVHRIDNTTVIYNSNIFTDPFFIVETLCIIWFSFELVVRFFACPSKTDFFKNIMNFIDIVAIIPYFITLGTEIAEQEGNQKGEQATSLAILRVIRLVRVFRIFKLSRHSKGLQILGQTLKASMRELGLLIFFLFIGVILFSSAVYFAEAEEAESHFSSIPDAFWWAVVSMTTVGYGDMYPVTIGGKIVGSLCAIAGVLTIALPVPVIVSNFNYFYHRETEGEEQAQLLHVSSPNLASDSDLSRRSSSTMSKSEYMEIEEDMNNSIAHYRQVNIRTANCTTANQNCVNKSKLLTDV
T2 sequence (P16389 whole entry): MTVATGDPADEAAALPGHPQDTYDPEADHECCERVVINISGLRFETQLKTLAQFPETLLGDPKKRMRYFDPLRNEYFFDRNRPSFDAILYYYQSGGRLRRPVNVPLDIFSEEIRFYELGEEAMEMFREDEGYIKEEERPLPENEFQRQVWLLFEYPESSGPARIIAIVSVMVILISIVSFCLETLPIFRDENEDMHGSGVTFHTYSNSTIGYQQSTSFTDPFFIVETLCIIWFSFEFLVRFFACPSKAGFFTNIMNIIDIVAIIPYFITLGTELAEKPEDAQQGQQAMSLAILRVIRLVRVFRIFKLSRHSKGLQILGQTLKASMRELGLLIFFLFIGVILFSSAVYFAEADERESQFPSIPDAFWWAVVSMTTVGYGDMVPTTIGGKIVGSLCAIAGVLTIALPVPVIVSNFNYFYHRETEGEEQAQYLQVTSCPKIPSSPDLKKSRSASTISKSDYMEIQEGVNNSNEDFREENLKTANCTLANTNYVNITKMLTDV
T5 sequence (Q09470 whole entry V408A): as the sequence (Q09470 whole entry) above, with V408A counted along it
T3 sequence (Q09470 whole entry E283K): as the sequence (Q09470 whole entry) above, with E283K counted along it
T4 sequence (Q09470 whole entry L328V): as the sequence (Q09470 whole entry) above, with L328V counted along it

| effect on Kv1.1 activity (wild-type human Kv1.1) | EM (unclamped oocyte membrane potential) (wild-type human Kv1.1) [mV] | Slope (wild-type human Kv1.1) [mV] | V0.5 Normalized tail current (wild-type human Kv1.1) [mV] | SMILES | also measured |
| --- | --- | --- | --- | --- | --- |
| did not alter Kv1.1 activity | -43.50 ± 1.46 | 6.00 ± 1.06 | -25.12 ± 1.81 | O=c1c(O)c(-c2ccc(O)c(O)c2)oc2cc(O)cc(O)c12 [quercetin] | – |
| no effect | -39.88 ± 2.34 | 8.73 ± 0.24 | -21.86 ± 0.64 | O=C1CCC[C@@H]2[C@H]3CCC[N+]4([O-])CCC[C@@H](CN12)[C@@H]34 (stereo partly shown) [oxymatrine] | – |
| did not alter Kv1.1 activity | -31.33 ± 2.31 | 5.83 ± 0.38 | -14.70 ± 0.44 | O.Oc1cc(O)c2c(c1)O[C@H](c1ccc(O)c(O)c1)[C@@H](O)C2 [catechin hydrate] | – |
| lesser but still robust opening effect | -56.75 ± 0.28 | 11.79 ± 2.88 | -31.59 ± 3.22 | C[C@@H]1O[C@@H](OC[C@H]2O[C@@H](Oc3c(-c4ccc(O)c(O)c4)oc4cc(O)cc(O)c4c3=O)[C@H](O)[C@@H](O)[C@@H]2O)[C@H](O)[C@H](O)[C@H]1O [rutin] | EC50 (wild-type human Kv1.1; [2]): 385 ± 12 nM; EC50 (wild-type human Kv1.1; oocytes expressing wild-type Kv1.1, read-out: EC50 for hyperpolarization of EM): 150 ± 38 nM; EC50 (wild-type human Kv1.2; [2]): 72 ± 16 nM; EC50 (wild-type human Kv1.2; oocytes expressing Kv1.2, read-out: EC50 for hyperpolarization of EM): 406 ± 62 nM; effect on channel activity (Kv1.1-E283K channels): ineffective; effect on channel activity (Kv1.1-L328V channels): ineffective; effect on channel activity (Kv1.1-V408A channels): ineffective |
| did not alter Kv1.1 activity | -45.25 ± 1.83 | 8.68 ± 0.87 | -22.40 ± 0.84 | O=c1c(O)c(-c2ccc(O)cc2)oc2cc(O)cc(O)c12 [kaempferol] | – |

Second part, the compound before the results:

| SMILES | effect on Kv1.1 activity (wild-type human Kv1.1) | EM (unclamped oocyte membrane potential) (wild-type human Kv1.1) [mV] | Slope (wild-type human Kv1.1) [mV] | V0.5 Normalized tail current (wild-type human Kv1.1) [mV] | also measured |
| --- | --- | --- | --- | --- | --- |
| C=C[C@@]1(C)C=C2CC[C@@H]3[C@](C)(CCC[C@@]3(C)C(=O)O)[C@H]2CC1 [Pimaric acid] | – | – | – | – | increase of wild-type Kv1.1 currents (wild-type Kv1.1): up to eightfold |
| C=CC(C)(O)CCC=C(C)C (stereo not shown) [linalool] | – | – | – | – | time to peak levels in the blood [1]: under 20 min |
| C=CC(C)(CCC=C(C)C)OC(C)=O (stereo not shown) [linalyl acetate] | – | – | – | – | time to peak levels in the blood [1]: under 20 min |
| O=c1cccc2n1C[C@@H]1CNC[C@H]2C1 [cytisine] | did not alter Kv1.1 activity | -41.60 ± 1.77 | 8.15 ± 1.31 | -23.96 ± 1.37 | – |
